Experiments:
Experiment in all cases: relative viability (nuclei count vs DMSO), 5 days (fraction); higher = more cells survive
[1] = compound: C(C(=O)C(=O)O)Br [Bromopyruvate] + COc1cc2c(Oc3ccc(NC(=O)C4(C(=O)Nc5ccc(F)cc5)CC4)cc3F)ccnc2cc1OCCCN1CCOCC1 [Foretinib] (partner 0.25 µM)
Method in brief: (§1)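 Dosing by pin tool came one day after lung cancer cell lines were seeded in 1536-well plates, using either one drug or a fixed anchor-drug dose plus five library-drug doses (not always all listed) in √10 steps. After 5 days, nuclei were counted on 4× images. Relative viability is treated-well nuclei count divided by vehicle-well nuclei count, and values are medians of duplicate plates.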

Bicalutamide + OSI-027 = compound: CC(O)(CS(=O)(=O)c1ccc(F)cc1)C(=O)Nc1ccc(C#N)c(C(F)(F)F)c1 [Bicalutamide] + COc1cccc2cc(-c3nc([C@H]4CC[C@H](C(=O)O)CC4)n4ncnc(N)c34)[nH]c12 [OSI-027] (partner 0.5 µM)
Method in brief: as §1

[2] = compound: C(C(=O)C(=O)O)Br [Bromopyruvate] + CS(=O)(=O)CCNCc1ccc(-c2ccc3ncnc(Nc4ccc(OCc5cccc(F)c5)c(Cl)c4)c3c2)o1 [Lapatinib] (partner 2 µM)
Method in brief: as §1

Bicalutamide + AZD7762 = compound: CC(O)(CS(=O)(=O)c1ccc(F)cc1)C(=O)Nc1ccc(C#N)c(C(F)(F)F)c1 [Bicalutamide] + NC(=O)Nc1cc(-c2cccc(F)c2)sc1C(=O)N[C@H]1CCCNC1 [AZD7762] (partner 0.2 µM)
Method in brief: as §1

Cell Line	relative viability ([1]; first compound 1 µM)	relative viability ([1]; first compound 3.162 µM)	relative viability ([1]; first compound 10 µM)	relative viability ([1]; first compound 31.62 µM)	relative viability ([1]; first compound 100 µM)	relative viability (Bicalutamide + OSI-027; first compound 0.08 µM)	relative viability (Bicalutamide + OSI-027; first compound 0.253 µM)	relative viability (Bicalutamide + OSI-027; first compound 0.8 µM)	relative viability (Bicalutamide + OSI-027; first compound 2.53 µM)	relative viability ([2]; first compound 1 µM)	relative viability ([2]; first compound 3.162 µM)	relative viability ([2]; first compound 10 µM)	relative viability ([2]; first compound 31.62 µM)	relative viability ([2]; first compound 100 µM)	relative viability (Bicalutamide + AZD7762; first compound 0.08 µM)	relative viability (Bicalutamide + AZD7762; first compound 0.253 µM)	relative viability (Bicalutamide + AZD7762; first compound 0.8 µM)	relative viability (Bicalutamide + AZD7762; first compound 2.53 µM)
NCI-H1666	0.994	1.05	1.03	1	0.936	0.911	0.866	0.916	0.831	0.823	0.666	0.677	0.701	0.557	0.928	0.759	0.873	0.801
NCI-H1734	0.888	0.923	1.03	0.807	0.824	0.66	0.473	0.614	0.488	1.08	0.944	1.26	1.08	1.12	0.568	0.439	0.645	0.571
NCI-H1755	0.936	0.923	0.925	0.909	0.937	0.768	0.687	0.82	0.524	0.988	1.02	1.02	1.07	1.19	0.382	0.388	0.475	0.365
NCI-H1793	0.718	0.821	0.833	0.736	0.684	0.278	0.238	0.302	0.269	0.593	1.11	0.674	0.842	0.59	0.705		0.432	0.282
NCI-H1915	1.03	1.08	1.09	1	1.12	0.639	0.516	0.653	0.535	0.95	0.98	0.976	0.98	0.991	0.721	0.616	0.712	0.682
NCI-H1944	0.954	0.83	1.03	0.874	0.913	0.476	0.292	0.442	0.389	0.826	0.903	0.932	0.7	0.869	0.496	0.438	0.519	0.366
NCI-H1975	0.988	1.1	1.03	0.972	0.927	0.741	0.642	0.746	0.633	0.876	1.08	1.01	0.838	0.833	0.769	0.783	0.722	0.667
NCI-H1993	0.84	0.817	0.939	0.764	0.774	0.479	0.594	0.523	0.511	0.698	0.763	0.705	0.847	0.769	0.539	0.744	0.919	0.58
NCI-H2085	0.865	1.06	0.964	0.779	0.465	0.832	0.642	0.788	0.628	0.761	0.784	0.771	0.815	0.707	0.983	0.99	1.02	0.901
NCI-H2087	1.13	1.17	0.97	1.12	0.595	0.598	0.512	0.579	0.572	1.06	1.02	1.09	0.91	1.05	1.29	1.29	1.58	1.26
NCI-H2126	1.17	1.39	1.2	1.26	1.31	0.681	0.619	0.673	0.755	0.752	0.78	0.764	0.787	0.751	0.994	0.918	1.01	0.856
NCI-H2170	0.961	1.01	1.07	0.995	0.966	0.765	0.636	0.668	0.705	0.25	0.284	0.277	0.246	0.293	0.805	0.817	1.26	0.902
NCI-H2347	0.925	1.01	1.22	0.721	0.982	0.395	0.327	0.515	0.427	0.897	1.02	1.18	0.782	1.15	0.797	0.753	0.753	0.73
NCI-H2405	1.08	1.07	1.08	1.04	1.04	0.651	0.568	0.624	0.632	1.13	1.12	1.13	0.965	1.14	0.739	0.713	0.88	0.694
NCI-H3122	0.985	1.04	1.01	0.915	0.917	0.951	0.905	1.25	0.881	0.982	1.05	0.961	1.01	1.01	0.98	1	1.05	1.01
PC-3 [JPC-3]	1.16	1.03	1.12	0.976	1.03	0.797	0.808	0.768	0.737	0.474	0.44	0.441	0.468	0.467	0.86	0.815	0.912	0.874
PC-14	0.945	0.939	1.02	0.848	0.981	0.825	0.697	1.6	0.606	0.317	0.317	0.361	0.276	0.325	0.314	0.329	0.443	0.353

Reference: the supplement of paper PMC10307832
